According to patent publication US20160376240A1, “6 Phenyl or 6 Pyridin 3 YL Indazole Derivatives and Methods of Use” (ABBVIE INC., priority 2014, published 2016):

Target: T1, TrkA (Homo sapiens, UniProt P04629)
T1 construct: purchased Invitrogen PV3144
Test: TrkA kinase inhibition, HTRF assay
Type: biochemical
Details: LCK peptide substrate 125 nM, TrkA 2-10 nM pre-incubated with ATP 200 μM
Method: TrkA, TrkB, and TrkC enzymes were obtained from Invitrogen (as catalog numbers PV3144, PV3616, and PV3617, respectively). The ability of a compound to inhibit the enzymatic activity of the TrkA, TrkB, and TrkC enzymes was determined in separate assays. Enzyme activity was measured in an HTRF® (homogeneous time resolved fluorescence) assay, which detects enzymatic phosphorylation of a biotinylated synthetic peptide substrate (an LCK peptide analog, biotin-ahx-GAEEEIYAAFFA, from Genemed Synthesis). Phosphorylation is assessed by HTRF® in the presence of an anti-phosphotyrosine antibody conjugated to Eu^3+ cryptate (Cisbio) as donor fluorophore, and streptavidin conjugated to allophycocyanin (ProZyme) as acceptor fluorophore. The HTRF® signal was detected at two different wavelengths (620 nm and 665 nm) which were used to calculate the fluorescence ratio.
Each enzyme was titrated to a concentration optimized to ensure accurate measurement of the initial reaction rate. To allow the Trk enzymes to undergo activation and auto-phosphorylation, a 20 minute pre-incubation with ATP was carried out (at twice the final targeted enzyme and ATP concentration) prior to addition of test compound and the peptide substrate.
TrkA in vitro assays were performed by pre-incubating TrkA (2-10 nM) with ATP (200 μM) for 20 minutes at ambient temperature in 50 mM HEPES pH 7.4, 10 mM MgCl2, 2 mM MnCl2, 100 μM Na3VO4, 1 mM dithiothreitol, 0.01% BSA (bovine serum albumin). Then, to the activated Trk enzyme mixture was added the test compound in 2% dimethyl sulfoxide. After 10 minutes, the peptide substrate (125 nM) was added. After 1 hour, enzyme reactions were terminated by addition of equal reaction volumes of detection/stop reagent (containing 0.2 μg/mL anti-phosphotyrosine monoclonal antibody labeled with europium from Cisbio (catalog# PT66-K), and 4 μg/mL PhycoLink® Streptavidin-Allophycocyanin conjugate from ProZyme (catalog# PJ25S) in 60 mM EDTA in 40 mM HEPES pH 7.4, 480 mM KF, 0.01% Tween® 20 and 0.1% BSA bovine serum albumin) Reaction plates were stored at 4° C. overnight before reading the fluorescence ratio signal on a PerkinElmer EnVision™ fluorescence detector. Individual reaction wells were stopped at time points to obtain reaction rates. The test inhibitor compounds were assayed in duplicate, at half-log serial dilutions over a range of concentrations (e.g. starting at 50 μM or 5 μM as the high compound concentration). The percent Trk enzyme inhibition was calculated from the initial rates of the inhibited reactions relative to the uninhibited control. IC50 values were calculated by fitting the inhibition percent to the concentration of inhibitor [I] in the assay in equation 1 below, to solve for the IC50.
Inhibition %=100[I]/([I]+[IC50]) equation 1

T1 sequence (P04629 33-796): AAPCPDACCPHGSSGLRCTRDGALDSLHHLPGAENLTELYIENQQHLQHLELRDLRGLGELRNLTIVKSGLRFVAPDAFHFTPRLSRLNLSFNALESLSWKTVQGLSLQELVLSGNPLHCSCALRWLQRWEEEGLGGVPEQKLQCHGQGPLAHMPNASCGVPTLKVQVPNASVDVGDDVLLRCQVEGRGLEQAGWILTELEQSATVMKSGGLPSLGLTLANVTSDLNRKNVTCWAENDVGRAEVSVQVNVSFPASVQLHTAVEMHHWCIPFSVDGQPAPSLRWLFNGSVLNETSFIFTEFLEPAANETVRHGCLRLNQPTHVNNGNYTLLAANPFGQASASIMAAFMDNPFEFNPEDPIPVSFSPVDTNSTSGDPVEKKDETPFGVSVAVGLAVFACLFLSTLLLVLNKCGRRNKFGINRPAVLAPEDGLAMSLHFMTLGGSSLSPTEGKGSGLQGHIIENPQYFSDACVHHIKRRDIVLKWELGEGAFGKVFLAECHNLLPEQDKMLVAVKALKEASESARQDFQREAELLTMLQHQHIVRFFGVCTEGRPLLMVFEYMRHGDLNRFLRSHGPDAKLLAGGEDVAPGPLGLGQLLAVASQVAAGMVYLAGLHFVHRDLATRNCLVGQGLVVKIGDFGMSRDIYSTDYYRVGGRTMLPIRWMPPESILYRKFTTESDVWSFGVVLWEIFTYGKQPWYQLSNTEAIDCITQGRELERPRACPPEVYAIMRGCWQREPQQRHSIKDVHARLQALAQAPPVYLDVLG

IC50 | Compound
29.1 nM | Cc1n[nH]c2cc(-c3ccc(C#N)c(N4CCN(CC(F)(F)F)CC4)c3)cc(OC3CCOCC3)c12 [Example 156, 4-[3-methyl-4-(tetrahydro-2H-pyran-4-yloxy)-1H-indazol-6-yl]-2-[4-(2,2,2-trifluoroethyl)piperazin-1-yl]benzonitrile]
530 nM | CNC(=O)c1ccc(-c2cc(O[C@H](C)C(F)(F)F)c3c(N)n[nH]c3c2)cc1N1CCN(C2CCC2)CC1 [Example 50, 4-(3-amino-4-{[(2R)-1,1,1-trifluoropropan-2-yl]oxy}-1H-indazol-6-yl)-2-(4-cyclobutylpiperazin-1-yl)-N-methylbenzamide]
29.2 nM | CNC(=O)c1ccc(-c2cc(O[C@@H](C)C(F)(F)F)c3c(N)n[nH]c3c2)cc1N1CCN(c2cccnc2)CC1 [Example 41, 4-(3-amino-4-{[(2S)-1,1,1-trifluoropropan-2-yl]oxy}-1H-indazol-6-yl)-N-methyl-2-[4-(pyridin-3-yl)piperazin-1-yl]benzamide]
32.8 nM | CCNC(=O)c1ccc(-c2cc(OC3CCOCC3)c3c(C)n[nH]c3c2)cc1N1CCN(c2ccccc2)CC1 [Example 115, N-ethyl-4-[3-methyl-4-(tetrahydro-2H-pyran-4-yloxy)-1H-indazol-6-yl]-2-(4-phenylpiperazin-1-yl)benzamide]
9.59 nM | CC(=O)c1ccc(-c2cc(OC3CCOCC3)c3c(N)n[nH]c3c2)cc1N1CCN(c2ncccn2)CC1 [Example 15, 1-{4-[3-amino-4-(tetrahydro-2H-pyran-4-yloxy)-1H-indazol-6-yl]-2-[4-(pyrimidin-2-yl)piperazin-1-yl]phenyl}ethanone]
50.8 nM | CNC(=O)c1ccc(-c2cc(OC3CCCC3)c3c(C)n[nH]c3c2)cc1N1CCN(C(=O)OCc2ccccc2)CC1 [Example 129, benzyl 4-{5-[4-(cyclopentyloxy)-3-methyl-1H-indazol-6-yl]-2-(methylcarbamoyl)phenyl}piperazine-1-carboxylate]
41.7 nM | CNC(=O)c1ccc(-c2cc(O[C@@H](C)C(F)(F)F)c3c(N)n[nH]c3c2)cc1N1CCN(c2ccccc2)CC1 [Example 39, 4-(3-amino-4-{[(2S)-1,1,1-trifluoropropan-2-yl]oxy}-1H-indazol-6-yl)-N-methyl-2-(4-phenylpiperazin-1-yl)benzamide]
30.9 nM | CC(=O)Nc1ccc(-c2cc(OC3CCOCC3)c3c(C)n[nH]c3c2)cc1OCCNC(=O)OC(C)C [Example 147, isopropyl (2-{2-acetamido-5-[3-methyl-4-(tetrahydro-2H-pyran-4-yloxy)-1H-indazol-6-yl]phenoxy}ethyl)carbamate]
135 nM | CNC(=O)c1ccc(-c2cc(O[C@H](C)C(F)(F)F)c3c(N)n[nH]c3c2)cc1N1CCC(C2CCCCC2)CC1 [Example 61, 4-(3-amino-4-{[(2R)-1,1,1-trifluoropropan-2-yl]oxy}-1H-indazol-6-yl)-2-(4-cyclohexylpiperidin-1-yl)-N-methylbenzamide]
2.9 nM | NC(=O)c1ccc(-c2cc(OC3CCOCC3)c3c(N)n[nH]c3c2)cc1N1CCN(c2cccc(Cl)c2)CC1 [Example 12, 4-[3-amino-4-(tetrahydro-2H-pyran-4-yloxy)-1H-indazol-6-yl]-2-[4-(3-chlorophenyl)piperazin-1-yl]benzamide]
39.8 nM | Cc1n[nH]c2cc(-c3ccc(C(=O)NC4CCC4)c(N4CCN(C5CCCCC5)CC4)c3)cc(OC3CCOCC3)c12 [Example 118, N-cyclobutyl-2-(4-cyclohexylpiperazin-1-yl)-4-[3-methyl-4-(tetrahydro-2H-pyran-4-yloxy)-1H-indazol-6-yl]benzamide]
27 nM | CC(Oc1cc(-c2ccc(C(N)=O)c(N3CCN(C4CCCCC4)CC3)c2)cc2[nH]nc(N)c12)C(F)(F)F (centres unmarked) [Example 93, 4-{3-amino-4-[(1,1,1-trifluoropropan-2-yl)oxy]-1H-indazol-6-yl}-2-(4-cyclohexylpiperazin-1-yl)benzamide]
37 nM | NC(=O)c1ccc(-c2cc(OC3CCOCC3)c3c(N)n[nH]c3c2)cc1N1CCN(CCN2CCOCC2)CC1 [Example 5, 4-[3-amino-4-(tetrahydro-2H-pyran-4-yloxy)-1H-indazol-6-yl]-2-{4-[2-(morpholin-4-yl)ethyl]piperazin-1-yl}benzamide]
38 nM | CNC(=O)c1ccc(-c2cc(OC3CCOCC3)c3c(N)n[nH]c3c2)cc1N1CCN(CC(F)F)CC1 [Example 169, 4-[3-amino-4-(tetrahydro-2H-pyran-4-yloxy)-1H-indazol-6-yl]-2-[4-(2,2-difluoroethyl)piperazin-1-yl]-N-methylbenzamide]
376 nM | CNC(=O)c1ccc(-c2cc(OC3CCOCC3)c3c(N)n[nH]c3c2)cc1N1CCN(C(=O)C2CC2)CC1 [Example 32, 4-[3-amino-4-(tetrahydro-2H-pyran-4-yloxy)-1H-indazol-6-yl]-2-[4-(cyclopropylcarbonyl)piperazin-1-yl]-N-methylbenzamide]
110 nM | CC(=O)c1ccc(-c2cc(OC3CCOCC3)c3c(N)n[nH]c3c2)cc1N1CCN(C2CC2)CC1 [Example 14, 1-{4-[3-amino-4-(tetrahydro-2H-pyran-4-yloxy)-1H-indazol-6-yl]-2-(4-cyclopropylpiperazin-1-yl)phenyl}ethanone]
8.29 nM | CCCOC(=O)N1CCN(c2cc(-c3cc(OC4CCOCC4)c4c(C)n[nH]c4c3)ccc2C(=O)NC)CC1 [Example 135, propyl 4-{2-(methylcarbamoyl)-5-[3-methyl-4-(tetrahydro-2H-pyran-4-yloxy)-1H-indazol-6-yl]phenyl}piperazine-1-carboxylate]
6320 nM | CNC(=O)c1ccc(-c2cc(O[C@H](C)C(F)(F)F)c3c(N)n[nH]c3c2)cc1N1CCN2CCCCC2C1 (stereo partly drawn) [Example 57, 4-(3-amino-4-{[(2R)-1,1,1-trifluoropropan-2-yl]oxy}-1H-indazol-6-yl)-N-methyl-2-(octahydro-2H-pyrido[1,2-a]pyrazin-2-yl)benzamide]
44 nM | NC(=O)c1ccc(-c2cc(OC3CCCC3)c3c(N)n[nH]c3c2)cc1N1CCN(CC(=O)N2CCCCC2)CC1 [Example 107, 4-[3-amino-4-(cyclopentyloxy)-1H-indazol-6-yl]-2-{4-[2-oxo-2-(piperidin-1-yl)ethyl]piperazin-1-yl}benzamide]
80.8 nM | CNC(=O)c1ccc(-c2cc(OC3CCOCC3)c3c(N)n[nH]c3c2)cc1N1CCN(C(=O)OC(C)C)CC1 [Example 114, isopropyl 4-{5-[3-amino-4-(tetrahydro-2H-pyran-4-yloxy)-1H-indazol-6-yl]-2-(methylcarbamoyl)phenyl}piperazine-1-carboxylate]
7.11 nM | CNC(=O)c1ccc(-c2cc(OC3CCOCC3)c3c(N)n[nH]c3c2)cc1N1CCNCC1 [Example 112, 4-[3-amino-4-(tetrahydro-2H-pyran-4-yloxy)-1H-indazol-6-yl]-N-methyl-2-(piperazin-1-yl)benzamide]
136 nM | NC(=O)c1ccc(-c2cc(OC3CCOCC3)c3c(N)n[nH]c3c2)cc1N1CCN(CCc2ccccn2)CC1 [Example 10, 4-[3-amino-4-(tetrahydro-2H-pyran-4-yloxy)-1H-indazol-6-yl]-2-{4-[2-(pyridin-2-yl)ethyl]piperazin-1-yl}benzamide]
19.2 nM | CNC(=O)c1ccc(-c2cc(OC3CCOCC3)c3c(C)n[nH]c3c2)cc1N1CCN(C(=O)C2CC2)CC1 [Example 124, 2-[4-(cyclopropylcarbonyl)piperazin-1-yl]-N-methyl-4-[3-methyl-4-(tetrahydro-2H-pyran-4-yloxy)-1H-indazol-6-yl]benzamide]
251 nM | CC(Oc1cc(-c2ccc(C(=O)NC3CC3)c(N3CCN(C4CC4)CC3)c2)cc2[nH]nc(N)c12)C(F)(F)F (centres unmarked) [Example 27, 4-{3-amino-4-[(1,1,1-trifluoropropan-2-yl)oxy]-1H-indazol-6-yl}-N-cyclopropyl-2-(4-cyclopropylpiperazin-1-yl)benzamide]
16.1 nM | NC(=O)c1ccc(-c2ccc3c(N)n[nH]c3c2)cc1N1CCN(c2ccccn2)CC1 [Example 86, 4-(3-amino-1H-indazol-6-yl)-2-[4-(pyridin-2-yl)piperazin-1-yl]benzamide]
28 nM | CNC(=O)c1ccc(-c2cc(OC(C)C(F)(F)F)c3c(N)n[nH]c3c2)cc1N1CCN(c2ccccc2)CC1 (centres unmarked) [Example 33, 4-{3-amino-4-[(1,1,1-trifluoropropan-2-yl)oxy]-1H-indazol-6-yl}-N-methyl-2-(4-phenylpiperazin-1-yl)benzamide]
